PMC9573667, “Efficient Oxidative Dearomatisations of Substituted Phenols Using Hypervalent Iodine (III) Reagents and Antiprotozoal Evaluation of the Resulting Cyclohexadienones against T. b. rhodesiense and P. falciparum Strain NF54” (Molecules, 2022)

tested on: P. falciparum, strain NF54, erythrocytic stages; test: In vitro growth inhibition assay of Plasmodium falciparum NF54 ([3H]-hypoxanthine incorporation); type: cell-based; conditions: Plasmodium falciparum, NF54, read-out: P. falc. IC50
Protocol: Antimalarial activity was determined in vitro against the erythrocytic stages of P. falciparum using the drug-sensitive strain NF54. Parasite proliferation was assessed by incorporation of [^3H]-hypoxanthine using a modified version of [75]; for details, please refer to the Supplementary Materials. The positive control was chloroquine.
1. Experimental of biological testing
1.1 In vitro growth inhibition assay of Plasmodium falciparum NF54
Plasmodium falciparum, strain NF54, erythrocytic stages, and the standard drug, chloroquine, were used for the assay. The parasite cultures incubated in RPMI 1640 medium with 5% AlbuMAXTM (without hypoxanthine) were exposed to serial drug dilutions in microtiter plates. After 48 h of incubation at 37 °C in a reduced oxygen atmosphere, 0.5 μCi [3H]-hypoxanthine was added to each well of the plate. Cultures were incubated for a further 24 h before they were harvested onto glass-fiber filters and washed with distilled water. The radioactivity was counted using a BetaplateTM liquid scintillation […]
counter (Wallac, Zurich). […]
concentration and expressed as percentage of the untreated controls. IC50 values were calculated from the sigmoidal inhibition curves using Microsoft Excel. Chloroquine was used as control. […]

Compound	IC50 [nM]
CCN(CC)CCCC(C)Nc1ccnc2cc(Cl)ccc12 (stereo not shown) [Chl., chloroquine, reference compound]	2
O=C1C=C(Cc2ccccc2)C(=O)c2ccccc21 [Compound 5c, 2-Benzyl-1,4-dihydronaphthalene-1,4-dione]	917

same assay, conditions: Plasmodium falciparum, NF54, strain NF54, erythrocytic stages; means of two to three measurements, SD <5%; read-out: P. falc. IC50

IC50 [nM]	Compound
969	COC(=O)CC1(O)C=CC(=O)C=C1 [Compound 4a, Methyl 2-(1-hydroxy-4-oxocyclohexa-2,5-dien-1-yl)acetate]
644	COC(=O)CC1(O)C=CC(=O)C(F)=C1 (stereo not shown) [Compound 4b, Methyl 2-(3-fluoro-1-hydroxy-4-oxocyclohexa-2,5-dien-1-yl)acetate]
837	COC(=O)CC1(O)C=CC(=O)C(Cl)=C1 (stereo not shown) [Compound 4c, Methyl 2-(3-chloro-1-hydroxy-4-oxocyclohexa-2,5-dien-1-yl)acetate]
301	COC(=O)CC1(O)C=CC(=O)C(Br)=C1 (stereo not shown) [Compound 4d, Methyl 2-(3-bromo-1-hydroxy-4-oxocyclohexa-2,5-dien-1-yl)acetate]
245	COC(=O)CC1(O)C=C(Cl)C(=O)C(Cl)=C1 [Compound 4e, Methyl 2-(3,5-dichloro-1-hydroxy-4-oxocyclohexa-2,5-dien-1-yl)acetate]

same assay, conditions: based on IC50 values in nmol/L; DataWarrior 5.5.0

Compound	ligand efficiency lipophilic price (LELP), P. falciparum	lipophilic ligand efficiency (LLE), P. falciparum
COC(=O)CC1(O)C=CC(=O)C=C1 [Compound 4a, Methyl 2-(1-hydroxy-4-oxocyclohexa-2,5-dien-1-yl)acetate]	-0.2447	6.1690
COC(=O)CC1(O)C=CC(=O)C(F)=C1 (stereo not shown) [Compound 4b, Methyl 2-(3-fluoro-1-hydroxy-4-oxocyclohexa-2,5-dien-1-yl)acetate]	0.07582	6.1451
COC(=O)CC1(O)C=CC(=O)C(Cl)=C1 (stereo not shown) [Compound 4c, Methyl 2-(3-chloro-1-hydroxy-4-oxocyclohexa-2,5-dien-1-yl)acetate]	0.4433	5.8133
COC(=O)CC1(O)C=CC(=O)C(Br)=C1 (stereo not shown) [Compound 4d, Methyl 2-(3-bromo-1-hydroxy-4-oxocyclohexa-2,5-dien-1-yl)acetate]	0.6181	6.1264
COC(=O)CC1(O)C=C(Cl)C(=O)C(Cl)=C1 [Compound 4e, Methyl 2-(3,5-dichloro-1-hydroxy-4-oxocyclohexa-2,5-dien-1-yl)acetate]	1.1301	5.9275

tested on: L6 cells rat skeletal myoblasts; test: Cytotoxicity against L6 cells (Alamar blue); type: cell-based; conditions: L6 rat skeletal myoblasts, 72 h; read-out: Cyt. L6 IC50
Protocol: The antiprotozoal activity of 5a,b has already been described in the literature. […] Cytotoxicity was determined using L6 rat skeletal myoblasts to calculate a selectivity index for each parasite (SI = IC50(L6)/IC50(parasite)).
Cytotoxicity was determined in vitro against rat L6 myoblasts as described; details are listed in the supplement. […]
1.3 Cytotoxicity against L6 cells
Assays were performed in 96-well microtiter plates, each well containing 100 μL of RPMI 1640 medium supplemented with 1% L-glutamine (200 mM) and 10% foetal bovine serum, and 4000 L6 cells (a […] cell line derived from rat skeletal myoblasts). Serial drug dilutions of 11 threefold dilution steps covering a range from 100 to 0.002 μg/mL were prepared. After 72 h of incubation, the plates were inspected under an inverted microscope to assure growth of the controls and sterile conditions. 10 μL of Alamar Blue solution was then added to each well and the plates incubated for another 2 h. Then the plates were read with a Spectramax Gemini XS microplate fluorometer (Molecular Devices Cooperation, Sunnyvale, CA, USA) using an excitation wavelength of 536 nm and an emission wavelength of 588 nm.
The IC50 values were calculated by linear regression from the sigmoidal dose inhibition curves using the microplate reader software Softmax Pro (Molecular Devices Cooperation, Sunnyvale, CA, USA).
Podophyllotoxin (Sigma P4405) was used as control.

Compound	IC50 [nM]
COC(=O)CC1(O)C=CC(=O)C=C1 [Compound 4a, Methyl 2-(1-hydroxy-4-oxocyclohexa-2,5-dien-1-yl)acetate]	391
COC(=O)CC1(O)C=CC(=O)C(F)=C1 (stereo not shown) [Compound 4b, Methyl 2-(3-fluoro-1-hydroxy-4-oxocyclohexa-2,5-dien-1-yl)acetate]	657
COC(=O)CC1(O)C=CC(=O)C(Cl)=C1 (stereo not shown) [Compound 4c, Methyl 2-(3-chloro-1-hydroxy-4-oxocyclohexa-2,5-dien-1-yl)acetate]	440
COC(=O)CC1(O)C=CC(=O)C(Br)=C1 (stereo not shown) [Compound 4d, Methyl 2-(3-bromo-1-hydroxy-4-oxocyclohexa-2,5-dien-1-yl)acetate]	214
COC(=O)CC1(O)C=C(Cl)C(=O)C(Cl)=C1 [Compound 4e, Methyl 2-(3,5-dichloro-1-hydroxy-4-oxocyclohexa-2,5-dien-1-yl)acetate]	116

same assay, conditions: Rattus norvegicus, L6, 72 h, read-out: Cyt. L6 IC50

Compound	IC50 [nM]
CCN(CC)CCCC(C)Nc1ccnc2cc(Cl)ccc12 (stereo not shown) [Chl., chloroquine, reference compound]	91100
O=C1C=C(Cc2ccccc2)C(=O)c2ccccc21 [Compound 5c, 2-Benzyl-1,4-dihydronaphthalene-1,4-dione]	22000

tested on: T. brucei rhodesiense, strain STIB900 trypomastigote forms; test: In vitro growth inhibition assay of Trypanosoma brucei rhodesiense STIB900 (Alamar blue); type: cell-based; conditions: Trypanosoma brucei, read-out: T. b. rhod. IC50
Protocol: Trypanocidal activity was determined in vitro against axenically grown bloodstream-forms of T. b. rhodesiense STIB900 as described in Refs. [76, 77] and detailed in the Supplementary Materials. Parasite proliferation was assessed via fluorescence of the redox-sensitive dye resazurin (Alamar blue). The drug melarsoprol was used as the positive control. […]
1.2 In vitro growth inhibition assay of Trypanosoma brucei rhodesiense
Trypanosoma brucei rhodesiense, STIB 900 strain, and the standard drug, melarsoprol, were used for the assay. Minimum Essential Medium (50 μL) supplemented with 25 mM HEPES, 1g/L additional glucose, 1% MEM non-essential amino acids (100x), 0.2 mM 2-mercaptoethanol, 1 mM Na-pyruvate and 15% heat-inactivated horse serum was added to each well of a 96-well microtiter plate. Serial drug dilutions of 11 three-fold dilution steps covering a range from 100 to 0.002 μg/mL were prepared. Then […]
mL double-distilled water) was then added to each well and incubation continued for a further 2–4 h.
Then, the plates were read with a Spectramax Gemini XS microplate fluorometer (Molecular Devices Cooperation, Sunnyvale, CA, USA) using an excitation wavelength of 536 nm and an emission wavelength of 588 nm. The IC50 values were calculated from the sigmoidal inhibition curves using the microplate reader software Softmax Pro (Molecular Devices Cooperation, Sunnyvale, CA, USA).
Melarsoprol was used as control. […]

IC50 [nM]	Compound
80	O=C1C=C(Cc2ccccc2)C(=O)c2ccccc21 [Compound 5c, 2-Benzyl-1,4-dihydronaphthalene-1,4-dione]

same assay, conditions: Trypanosoma brucei, read-out: T. brucei rhodesiense IC50

IC50 [nM]	Compound
< 100	O=C1C=C(Cc2ccccc2)C(=O)c2ccccc21 [Compound 5c, 2-Benzyl-1,4-dihydronaphthalene-1,4-dione]

same assay, conditions: Trypanosoma brucei; strain STIB900 trypomastigote forms; means of two to three measurements, SD <5%; read-out: T. b. rhod. IC50

IC50 [nM]	Compound
588	COC(=O)CC1(O)C=CC(=O)C=C1 [Compound 4a, Methyl 2-(1-hydroxy-4-oxocyclohexa-2,5-dien-1-yl)acetate]
78	COC(=O)CC1(O)C=CC(=O)C(F)=C1 (stereo not shown) [Compound 4b, Methyl 2-(3-fluoro-1-hydroxy-4-oxocyclohexa-2,5-dien-1-yl)acetate]
47	COC(=O)CC1(O)C=CC(=O)C(Cl)=C1 (stereo not shown) [Compound 4c, Methyl 2-(3-chloro-1-hydroxy-4-oxocyclohexa-2,5-dien-1-yl)acetate]
42	COC(=O)CC1(O)C=CC(=O)C(Br)=C1 (stereo not shown) [Compound 4d, Methyl 2-(3-bromo-1-hydroxy-4-oxocyclohexa-2,5-dien-1-yl)acetate]
10	COC(=O)CC1(O)C=C(Cl)C(=O)C(Cl)=C1 [Compound 4e, Methyl 2-(3,5-dichloro-1-hydroxy-4-oxocyclohexa-2,5-dien-1-yl)acetate]

same assay, conditions: based on IC50 values in nmol/L; DataWarrior 5.5.0

Compound	ligand efficiency lipophilic price (LELP), T. brucei rhodesiense	lipophilic ligand efficiency (LLE), T. brucei rhodesiense
COC(=O)CC1(O)C=CC(=O)C=C1 [Compound 4a, Methyl 2-(1-hydroxy-4-oxocyclohexa-2,5-dien-1-yl)acetate]	-0.2362	6.3859
COC(=O)CC1(O)C=CC(=O)C(F)=C1 (stereo not shown) [Compound 4b, Methyl 2-(3-fluoro-1-hydroxy-4-oxocyclohexa-2,5-dien-1-yl)acetate]		7.0619
COC(=O)CC1(O)C=CC(=O)C(Cl)=C1 (stereo not shown) [Compound 4c, Methyl 2-(3-chloro-1-hydroxy-4-oxocyclohexa-2,5-dien-1-yl)acetate]	0.3676	7.0639
COC(=O)CC1(O)C=CC(=O)C(Br)=C1 (stereo not shown) [Compound 4d, Methyl 2-(3-bromo-1-hydroxy-4-oxocyclohexa-2,5-dien-1-yl)acetate]	0.5464	6.9818
COC(=O)CC1(O)C=C(Cl)C(=O)C(Cl)=C1 [Compound 4e, Methyl 2-(3,5-dichloro-1-hydroxy-4-oxocyclohexa-2,5-dien-1-yl)acetate]	0.9339	7.3167
